Patent US20160143917A1, “COMPOSITIONS AND METHODS FOR MODULATING HIV ACTIVATION” (priority 2013, published 2016)
Several values for one entry are separate records, joined by “and”; a condition that tells them apart may be missing. Identical values can stand only once.

Experiments:
[1] = test system: latently HIV provirus infected Jurkat (T-cell) clone 2D10 cells carrying a GFP-expressing provirus; assay: Reactivation of latent HIV provirus (GFP expression) in 2D10 cells; type: cell-based, human; conditions: for Un-stimulated: drug alone, no TNFα or SAHA, drug concentration (Fulvestrant 2.5 μM, Y-134 5 μM, Endoxifen 5 μM, MPP 5 μM, Tamoxifen 10 μM, Gossypol 5 μM, PPT 100 μM, Stilbestrol 5 μM); for 250 nM SAHA drug: drug at row concentration plus sub-optimum 250 nM SAHA; for +100 pg/ml TNFα drug: drug plus sub-optimum 100 pg/ml TNFα; for +400 pg/ml TNFα drug: pre-treatment with agonist at row concentration plus 400 pg/ml TNFα; for 2 μM SAHA drug: pre-treatment with agonist at row concentration plus 2 μM SAHA
From the text: Still other ESR-1 antagonists can be identified and screened for potential induction of latent HIV activation by using cell based assays described in Examples 1 and 2. For example to determine whether a composition or potential ESR-1 antagonist can induce HIV-1 provirus re-activation in latently infected primary T-cells (Th17), the ESR-1 antagonist can be administered to latently HIV provirus infected Jurkat (T-cell) clone 2D10 cells carrying a GFP-expressing provirus. The level of GFP expression can then be measured to determine activation. In another example, the ESR-1 antagonist can be administered to the latently infected primary T-cells (Th17) and phosphorylation of serine 175 of CDK9 can be measured by flow cytometry analysis. Along with CDK9 pSer175, expression of viral protein Nef can also measured.
FIG. 2 illustrates the ESR1 antagonist Fulvestrant weakly stimulates 2D10 reactivation and sensitizes the cells to reactivation by sub-optimal concentrations of TNF-α. A. Unstimulated cells showing the low basal activation levels of approximately 2%. […] C. Activation of cells with 2.5 μM Fulvestrant.
To further validate involvement of ESR-1 in latency maintenance program, we have examined a series of antagonists and agonist as represented in Table 2 on 2D10. In all the cases it was observed that blocking of ESR-1 by antagonist either constitutively re-activate or sensitizes the pro-virus to sub-optimum dose of TNFα (100 pg/ml) and SAHA (250 nM).

[2] = test system: CHME5/HIV cells, a latently infected Fetal Microglia Cell line; assay: Reactivation of latent HIV provirus (GFP expression) in microglial cells; type: cell-based
Procedure: FIGS. 5(A-D) illustrate histograms showing GFP expression in CHME5/HIV cells, a latently infected Fetal Microglia Cell line carrying a GFP-expressing provirus, that are: (A) unstimulated; (B) administered a suboptimal dose of TNFα (10 ng/ml); (C) administered […] Fulvestrant; or (D) pre-treated with Fulvestrant and administered a suboptimal dose of TNFα.
A. Unstimulated CHME5/HIV cells, a latently infected Fetal Microglia Cell line. Basal activation levels were 2.31%. B. Reactivation of CHME5/HIV cells with a suboptimal dose of TNFα (10 ng/ml) induced 13.96% of the proviruses. C. […] These observations indicate that pro-virus reactivation by modulating the ESR-1 is specific for T-cell.

[3] = test system: Latently HIV-1 infected Th17 primary cells; assay: Reactivation of latent provirus in primary Th17 cells, HIV Nef protein expression; type: cell-based; conditions: single agent; untreated cells 2.54%
From the text: FIG. 3 illustrates latently infected primary T-cells are reactivated by the ESR1 antagonist, Fulvestrant (ICI.182780). […] B. Stimulation of the latently infected cells through the T-cell receptor using antibodies to CD3/CD28 re-activated 60.82% of the cells in the population. C. […] Method: Naive T-cells from healthy donors were activated using anti-CD3/[…] antibodies and polarized in the direction of primary Th-17 cells using a cocktail of cytokines. The exponentially growing cells were infected with HIV-1 virus containing d2EGFP fused to CD8a for surface expression of the reporter gene. The CD8a positive cells were purified using CD8a antibody conjugated magnetic beads. The HIV-1 infected cells were allowed to become quiescent by culturing in media containing minimal levels of IL2.

[4] = test system: latently infected primary T-cells (Th17); assay: CDK9 pSer175 and Nef by flow cytometry in latently infected primary T-cells; type: cell-based
Procedure: At the time of HIV-1 provirus re-activation one of the key marker is phosphorylation of serine 175 amino acid residue of CDK9 (CDK9 pSer175). To determine the status of HIV-1 provirus re-activation in latently infected primary T-cells (Th17) by ESR-1 antagonist Tamoxifen, phosphorylation of serine 175 of CDK9 was measured by flow cytometry analysis. Along with CDK9 pSer175, expression of viral protein Nef was also measured. […] Keeping that in mind, latently infected primary T-cell was treated with tamoxifen and SAHA alone or in combination where sub-optimum dose of (250 nM) was used (FIGS. 11 B, D, E). […] Therefore re-activation of latent provirus in Gossypol and/or SAHA treated primary T-cell was also examined (FIGS. 11 C-D).

Q: Which results are given for `CC/C(=C(\c1ccc(O)cc1)c1ccc(OCCNC)cc1)c1ccccc1` [Endoxifen]?
A: Un-stimulated [1]: 9.70%; 250 nM SAHA drug [1]: 26.63%; +100 pg/ml TNFα drug [1]: 29.31%

Q: For TNFα, which “proviruses induced (GFP)” value ([2]; 10 ng/ml TNFα alone (suboptimal), basal 2.31%) is on record?
A: Its value is 13.96%.

Q: And the “re-activation of latent provirus (GFP)” value ([1]; 100 pg/ml TNFα alone (sub-optimal))?
A: Its value is 15.95%.

Q: And the “proviral re-activation (GFP)” value ([1]; 400 pg/ml TNFα alone)?
A: Its value is 70.88%.

Q: What about the “+100 pg/ml TNFα” value ([1]; Control (2D10), 100 pg/ml TNFα alone, no ESR-1 drug) of the same molecule?
A: The value was 16.15%.

Q: And the “400 pg/ml TNFα” value ([1]; Control (2D10), 400 pg/ml TNFα alone, no ESR-1 drug)?
A: Its value is 70.88% and 88.12%.

Q: What about the “proviruses stimulated (GFP)” value ([1]; phenol-red free media, 10% charcoal-stripped FBS (estrogen-depleted), 400 pg/ml TNFα alone) of the same molecule?
A: The value was 79.59%.

Q: With `C[C@]12CC[C@@H]3c4ccc(O)cc4CC[C@H]3[C@@H]1CC[C@@H]2O` [β-estradiol] as the molecule, how does the “stimulation of latent HIV proviruses (GFP)” value ([1]; estrogen-depleted media, 2 ng/ml β-estradiol alone) read?
A: The value was “does not stimulate latent HIV proviruses”.

Q: And the “responsiveness to TNFα (GFP)” value ([1]; estrogen-depleted media, 2 ng/ml β-estradiol plus 400 pg/ml TNFα)?
A: The value was “did not enhance responsiveness”.

Q: Which results are given for `CCCc1c(-c2ccc(O)cc2)nn(-c2ccc(O)cc2)c1-c1ccc(O)cc1` [PPT, 4,4′,4″-(4-Propyl-[1H]-pyrazole-1,3,5-triyl)trisphenol]?
A: reactivation of latently infected cells (GFP) ([1]; 100 μM PPT alone): not reactivated; Un-stimulated [1]: 3.57%; activation of the cells (GFP) ([1]; pre-treatment with PPT, then SAHA (1 μM)): 8.77%; +400 pg/ml TNFα drug [1]: 13.41%; 2 μM SAHA drug [1]: 6.76%; reactivation induced by TNFα (GFP) ([1]; pretreatment with PPT for one hour, then 400 pg/ml TNFα): 13.41%

Q: Which “latent proviruses/cells re-activated, measured by expression of the HIV Nef protein” value [3] does the source give for `C[C@]12CC[C@@H]3c4ccc(O)cc4C[C@@H](CCCCCCCCC[S+]([O-])CCCC(F)(F)C(F)(F)F)[C@H]3[C@@H]1CC[C@@H]2O` (stereo partly shown) [Fulvestrant] here?
A: Its value is 25.27%.

Q: And the “stimulation of CHME5/HIV cells (GFP)” value ([2]; 2.5 mM Fulvestrant alone)?
A: Its value is “did not stimulated CHME5/HIV cells beyond basal levels”.

Q: What about the “sensitization towards TNFα stimulation (GFP)” value ([2]; pre-treatment with Fulvestrant, then suboptimal TNFα (10 ng/ml)) of the same molecule?
A: Its value is “did not sensitize the latent population towards TNFα stimulation”.

Q: What about the “reactivation of latent provirus (GFP)” value ([1]; 2.5 μM Fulvestrant alone) of the same molecule?
A: Its value is “small but significant reactivation”.

Q: What about the GFP levels ([1]; 50 μM Fulvestrant alone) of the same molecule?
A: The GFP levels was 8.05%.

Q: What about the Un-stimulated [1] of the same molecule?
A: Its Un-stimulated is 2.68%.

Q: What about the “250 nM SAHA drug” value [1] of the same molecule?
A: Its value is 17.78%.

Q: What about the “+100 pg/ml TNFα drug” value [1] of the same molecule?
A: Its value is 41.01%.

Q: What about the “reactivation of latent population (GFP)” value ([1]; one hour pre-treatment with Fulvestrant, then 100 pg/ml TNFα) of the same molecule?
A: Its value is 41.01%.

Q: What about the “reactivation of pro-virus (GFP)” value ([1]; pre-treatment with Fulvestrant (50 μM) for one hour, then 250 nM SAHA) of the same molecule?
A: Its value is 18.80%.

Q: Which results are given for `O=C(CCCCCCC(=O)Nc1ccccc1)NO` [SAHA, suberoylanilide hydroxamic acid]?
A: cells induced (GFP) ([1]; 250 nM SAHA alone (sub-optimum)): 5.25%; re-activation of the population (GFP) ([1]; 1 μM SAHA alone): 65.87%; 250 nM SAHA ([1]; Control (2D10), 250 nM SAHA alone, no ESR-1 drug): 14.34%; 2 μM SAHA ([1]; Control (2D10), 2 μM SAHA alone, no ESR-1 drug): 65.43% and 71.83%

Q: Which results are given for `CC/C(=C(\c1ccccc1)c1ccc(OCCN(C)C)cc1)c1ccccc1` [Tamoxifen]?
A: re-activation of latent provirus (CDK9 pSer175 and Nef expression) ([4]; drug alone): failed to re-activate latent provirus; re-activation of latent provirus (CDK9 pSer175 and Nef expression) ([4]; drug combined with sub-optimum SAHA (250 nM)): elevated expression of both CDK9 pSer175 and Nef; Un-stimulated [1]: 12.09%; 250 nM SAHA drug [1]: 22.50%; +100 pg/ml TNFα drug [1]: 33.03%

Q: For `CC/C(=C(/CC)c1ccc(O)cc1)c1ccc(O)cc1` [Stilbestrol], which Un-stimulated [1] is on record?
A: The Un-stimulated was 6.20%.

Q: What about the “+400 pg/ml TNFα drug” value [1] of the same molecule?
A: The value was 33.70%.

Q: What about the “2 μM SAHA drug” value [1] of the same molecule?
A: Its value is 4.34%.

Q: What about the “effect of agonist pre-treatment on provirus re-activation” value ([1]; pre-treatment, optimum dose of TNFα (400 pg/ml) and SAHA (2 μM)) of the same molecule?
A: Its value is “block the re-activation of latent pro-virus”.

Q: Which Un-stimulated [1] does the source give for `Cc1c(-c2ccc(O)cc2)nn(-c2ccc(O)cc2)c1-c1ccc(OCCN2CCCCC2)cc1` [MPP] here?
A: Its Un-stimulated is 14.49%.

Q: And the “250 nM SAHA drug” value [1]?
A: The value was 31.14%.

Q: And the “+100 pg/ml TNFα drug” value [1]?
A: Its value is 39.60%.

Q: How did the “pro-virus re-activation (GFP)” value ([2]; Gossypol alone) turn out when `Cc1cc2c(C(C)C)c(O)c(O)c(C=O)c2c(O)c1-c1c(C)cc2c(C(C)C)c(O)c(O)c(C=O)c2c1O` [Gossypol] was run?
A: Its value is 1.60%.

Q: What about the “re-activation of pro-virus (GFP)” value ([2]; Gossypol combined with 10 ng/ml TNFα (sub-optimum)) of the same molecule?
A: The value was 10.24%.

Q: What about the “proviral re-activation (GFP)” value ([1]; 5 μM Gossypol alone) of the same molecule?
A: Its value is 30.58%.

Q: And the “re-activation (GFP)” value ([1]; 5 μM Gossypol combined with 100 pg/ml TNFα (sub-optimum))?
A: The value was 60.15%.

Q: What about the Un-stimulated [1] of the same molecule?
A: The Un-stimulated was 30.58%.

Q: What about the “+100 pg/ml TNFα drug” value [1] of the same molecule?
A: Its value is 60.15%.
